# Assay results as given in ChEMBL document CHEMBL1134285, “Novel agouti-related-protein-based melanocortin-1 receptor antagonist” (J Med Chem, 2001).
# Positions of bridges follow the written chain, without caps; N, C: chain ends. Residues, ends and D or L forms follow the SMILES beside them.
# Molecular target: Melanocortin receptor 4 (Mus musculus, UniProt P56450)
# Test: Antagonist activity against mouse melanocortin-4 receptor (MC4R) using Schild analysis
# Type: functional
# Conditions: for Kb: read-out: pA2 (converted)
# Chain of Melanocortin receptor 4 (P56450 whole entry): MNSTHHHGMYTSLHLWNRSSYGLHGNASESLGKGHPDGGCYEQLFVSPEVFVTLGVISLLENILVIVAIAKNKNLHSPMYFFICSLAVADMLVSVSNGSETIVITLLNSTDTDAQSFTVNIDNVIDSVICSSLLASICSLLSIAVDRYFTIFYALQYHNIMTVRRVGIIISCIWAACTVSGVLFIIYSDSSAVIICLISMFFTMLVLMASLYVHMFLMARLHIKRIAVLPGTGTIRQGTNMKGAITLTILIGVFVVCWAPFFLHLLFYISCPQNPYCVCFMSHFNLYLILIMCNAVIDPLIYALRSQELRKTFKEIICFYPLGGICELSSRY
pA2,SMILES,Kb [nM]
6.98,C[C@@H]1NC(=O)[C@H](CC(N)=O)NC(=O)[C@H](Cc2ccccc2)NC(=O)[C@H](Cc2ccccc2)NC(=O)[C@H](CCCN=C(N)N)NC(=O)CC[C@H](NC(=O)[C@@H](N)Cc2ccc(O)cc2)C(=O)NC[C@@H](C(=O)N[C@@H](Cc2ccc(O)cc2)C(N)=O)NC(=O)[C@H](Cc2ccccc2)NC1=O,–
–,C[C@@H]1NC(=O)[C@H](CC(N)=O)NC(=O)[C@H](Cc2ccccc2)NC(=O)[C@H](Cc2ccccc2)NC(=O)[C@H](CCCNC(=N)N)NC(=O)[C@@H](NC(=O)[C@@H](N)Cc2ccc(O)cc2)CSSC[C@@H](C(=O)N[C@@H](Cc2ccc(O)cc2)C(N)=O)NC(=O)[C@H](Cc2ccccc2)NC1=O (H-YCRFFNAFCY-NH2; disulfide 2-9),155
–,C[C@@H]1NC(=O)[C@H](CC(N)=O)NC(=O)[C@H](Cc2ccccc2)NC(=O)[C@H](Cc2ccccc2)NC(=O)[C@H](CCCNC(=N)N)NC(=O)[C@@H](NC(=O)[C@@H](N)Cc2ccc(O)cc2)CC(=O)NC[C@@H](C(=O)N[C@@H](Cc2ccc(O)cc2)C(N)=O)NC(=O)[C@H](Cc2ccccc2)NC1=O,479
